“Also recorded” adds a separate entry of the source.
What was measured:
[1] = Zeta potential measurement; assay type: physicochemical
Procedure: GlcN and PilACt were diluted in PBS buffer, and the solutions were adjusted to a suitable pH (6, 7.6, and 9) using either HCl or NaOH. The zeta (ζ) potential of GlcN (0.5 mg/mL) and PilACt (1 mg/mL) solutions was measured using UV-grade cuvettes with a Zetasizer NanoZS90 (Malvern Instruments, United Kingdom). For each measurement, 1 mL of the sample was injected into a folded capillary cell. All experiments were conducted in triplicate.

PilACt-F186A = target: T1, PilACt-F186A (Myxococcus xanthus, UniProt Q59589, F186A); assay: SPR, carbohydrates over immobilized PilACt-F186A; assay type: binding
T1 construct: a truncated variant (PilACt) spanning residues 32–208; His tag; made in house; host or cells: E. coli (BL21 (DE3) is named only for the other PilACt variants)
T1 sequence (Q59589 44-220 F186A): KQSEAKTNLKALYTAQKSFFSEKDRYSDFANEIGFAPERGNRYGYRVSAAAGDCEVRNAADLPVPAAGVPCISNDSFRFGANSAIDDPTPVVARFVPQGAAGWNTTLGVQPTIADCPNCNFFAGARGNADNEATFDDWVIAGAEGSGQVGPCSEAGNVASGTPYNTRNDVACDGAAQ
Text: (§1) To functionally validate the role of W146, a W146A substitution mutant (PilA-W146A) was generated through AlphaFold2-based structural modeling of PilA (Fig. 4A). Structural alignment confirmed the mutant retained a tertiary structure indistinguishable from wild-type PilA (WT PilA; Fig. 4B), indicating the W146A substitution caused no global structural perturbations. […] However, the mutation induced localized instability, manifested by premature GlcN dissociation (4 ns) and excessive ligand RMSD fluctuations (>6 nm; Fig. 4C and D; Movie S4). […] To quantify binding effects, a single-residue PilACt variant (PilACt-W146A) was analyzed for EPS/GlcN affinity. […] To assess broader aromatic residue contributions, four additional PilA aromatic residues (Y69, W181, F164, and F186) were individually substituted with alanine. The PilACt-F164A mutant underwent intracellular degradation, likely due to structural instability, precluding heterologous expression.
(§2) The binding affinity of carbohydrates to PilACt and its mutants was determined by SPR measurements at 25°C using Biacore T200 (Cytiva, USA) in PBS buffer. […]
(§3) Fig S11. […] The binding affinity of single-residue variants PilACt-Y69A, PilACt-W181A, and PilACt-F186A to S-EPS (A) and GlcN (B) was evaluated by SPR analysis. Representative sensorgram and calculated KD values are shown. […]

M. xanthus DK1622 cells = system: M. xanthus DK1622 cells; set-up: method as in PMID 12704238; conditions: DK1622 cells ref 15; cited from earlier work
[2] = amine group of GlcN; no reference given; cited from earlier work
PilACt-Y69A = target: T2, PilACt-Y69A (Myxococcus xanthus, UniProt Q59589, Y69A); assay: SPR, carbohydrates over immobilized PilACt-Y69A; assay type: binding
T2 construct: a truncated variant (PilACt) spanning residues 32–208; His tag; made in house; host or cells: E. coli BL21 (DE3)
T2 sequence (Q59589 44-220 Y69A): as the sequence (Q59589 44-220 F186A) above, with Y26A, A143F counted along it
Text: as §1, §2, §3

PilACt = target: T3, PilACt (Myxococcus xanthus, UniProt Q59589); assay: Isothermal titration calorimetry (ITC), carbohydrates titrated into PilACt; assay type: binding
T3 construct: a truncated variant (PilACt) spanning residues 32–208; His tag; made in house; host or cells: E. coli BL21 (DE3)
T3 sequence (Q59589 44-220): as the sequence (Q59589 44-220 F186A) above, with A143F counted along it
Procedure: (§4) ITC power compensation analyses ([50]) confirmed negligible enthalpy changes during titrations, ruling out nonspecific binding events (Fig. S3B and S4B). […] Given the presence of ManNAc in M. xanthus EPS, we further analyzed its deacetylated derivative, mannosamine (ManN).
The calorimetric data for the binding of PilACt and its mutants to carbohydrates were measured at 25°C using a MicroCal PEAQ-ITC system (Malvern Instruments, United Kingdom). The carbohydrates, PilACt, and its mutants were dissolved in the PBS buffer. A 300 µL aliquot of protein solution was placed in the sample cell, followed by 19 sequential 2 µL injections of carbohydrates from a syringe stock solution into the sample cell. The injection interval was 150 s, and the agitation speed was set at 750 rpm. A control titration, in which carbohydrates were injected into PBS buffer under the same conditions, was performed to measure the heat of mixing and dilutions, which was then subtracted from the titration results involving the protein. Raw data were imported into MicroCal PEAQ-ITC analysis software (Version 1.1.01262) and corrected by subtracting the equivalent dilution heats of control titration. Integration of the area under each, along with deduction of the heat of dilution, yielded a thermogram of the molecular interaction between carbohydrates and PilACt or its mutants.

[3] = target: T4, PilACt (truncated PilA, residues 32–208) (Myxococcus xanthus, UniProt Q59589); assay: Surface plasmon resonance (SPR, Biacore T200), carbohydrates over immobilized PilACt; assay type: binding; conditions: for Kd: KD (SPR, PilACt)
T4 construct: a truncated variant (PilACt) spanning residues 32–208; His tag; made in house; host or cells: E. coli BL21 (DE3)
T4 sequence (Q59589 44-220): as the sequence (Q59589 44-220 F186A) above, with A143F counted along it
Text: We therefore employed surface plasmon resonance (SPR) on a Biacore system to quantitatively evaluate EPS-PilA binding ([48]), using immobilized PilACt as the ligand. […] Due to the insoluble nature of I-EPS and the risk of clogging the microfluidic channels, it was excluded from further SPR analyses.
as §4
The binding affinity of carbohydrates to PilACt and its mutants was determined by SPR measurements at 25°C using Biacore T200 (Cytiva, USA) in PBS buffer. The purified PilACt or its mutants (10 µg/mL in 10 mM sodium acetate, pH 4.5) were immobilized on the CM5 chips (Cytiva, USA) via amine coupling. Unreacted sites were blocked with 1.0 M ethanolamine-HCl (pH 8.5). Flow path 1 or path 3 was used as an activated blank control for subtraction. In all interaction experiments, analytes were injected at a flow rate of 30 µL/min for 180 s, with gradient concentrations programmed from low to high. After injection, dissociation was allowed to occur with the buffer flow for 300 s to facilitate chip regeneration. The resulting curves were corrected and fitted to the steady-state model using Biacore evaluation software (version 3.0, Cytiva, USA) to determine the dissociation constant (KD) values.

PilACt-W181A = target: T5, PilACt-W181A (Myxococcus xanthus, UniProt Q59589, W181A); assay: SPR, carbohydrates over immobilized PilACt-W181A; assay type: binding
T5 construct: a truncated variant (PilACt) spanning residues 32–208; His tag; made in house; host or cells: E. coli BL21 (DE3)
T5 sequence (Q59589 44-220 W181A): as the sequence (Q59589 44-220 F186A) above, with W138A, A143F counted along it
Text: as §1, §2, §3

PilACt-W146A = target: T6, PilACt-W146A (Myxococcus xanthus, UniProt Q59589, W146A); assay: SPR, carbohydrates over immobilized PilACt-W146A; assay type: binding; conditions: 25°C, PBS
T6 construct: a truncated variant (PilACt) spanning residues 32–208; His tag; made in house; host or cells: E. coli BL21 (DE3)
T6 sequence (Q59589 44-220 W146A): as the sequence (Q59589 44-220 F186A) above, with W103A, A143F counted along it
Text: as §1
The binding affinity of carbohydrates to PilACt and its mutants was determined by SPR measurements at 25°C using Biacore T200 (Cytiva, USA) in PBS buffer. The purified PilACt or its mutants (10 µg/mL in 10 mM sodium acetate, pH 4.5) were immobilized on the CM5 chips (Cytiva, USA) via amine coupling. Unreacted sites were blocked with 1.0 M ethanolamine-HCl (pH 8.5). Flow path 1 or path 3 was used as an activated blank control for subtraction. […]

Compound: N[C@H]1C(O)O[C@H](CO)[C@@H](O)[C@@H]1O (stereo partly drawn) [GlcN, glucosamine]
- zeta potential ([1]; pH 6, PBS): +2.43 mV
- zeta potential ([1]; pH 7.6, PBS): 1.09 mV
- binding affinity relative to WT PilACt (SPR) (PilACt-F186A): indistinguishable from WT
- piliation phenotype (surface pili) (M. xanthus DK1622 cells): hyperpiliation
- pKa [2]: ~ 7.58
- binding affinity relative to WT PilACt (SPR) (PilACt-Y69A): indistinguishable from WT
- Kd (PilACt): 300 µM
- stoichiometry n (ITC) (PilACt; 25°C, PBS, pH 7.6): 1.47
- Kd ([3]; pH 9): 87 µM
- Kd ([3]; steady-state fit, 25°C, PBS buffer, pH 7.6): 203 µM
- binding affinity relative to WT PilACt (SPR) (PilACt-W181A): indistinguishable from WT
- binding to PilACt-W146A by SPR (PilACt-W146A): undetectable; also recorded: No binding

Compound: CC(=O)N[C@@H]1[C@@H](O)[C@H](O)[C@@H](CO)O[C@H]1O [GlcNAc, N-acetyl-glucosamine]
- piliation phenotype (surface pili) (M. xanthus DK1622 cells): hyperpiliation
- binding to PilACt by ITC (PilACt; 25°C, PBS): undetectable
- binding to PilACt by SPR ([3]; tested concentrations 31.25–1,000 µM): undetectable

Source: article PMC12691611, “Aromatic residue Trp146 mediates dynamic interplay between type IVa pili and exopolysaccharide in social motility of Myxococcus xanthus” (mBio, 2025)
